According to patent US20260034130A1 (priority 2022, published 2026):

Tests used:
Assay type in all cases: in vivo, human
[1] = test system: patients with acute ischemic stroke or high-risk TIA; assay: AXIOMATIC-SSP primary efficacy: composite of new clinical ischemic stroke during treatment and new covert brain infarction detected by MRI on Day 90; settings: modified ITT
Method: The main objective is to determine the dose-response relationship of milvexian in participants with acute ischemic stroke or TIA who are treated with aspirin and clopidogrel. The main secondary objective is to assess the rate of major bleeding in this population compared with placebo.
The primary efficacy endpoint was the composite of incident ischemic stroke during the treatment period or new covert brain infarction detected by the comparison of 90-day and baseline MRIs. All images were read independently by 2 blinded neuroradiologists, and disagreements were resolved by consensus. […] Clinically overt strokes were determined by site investigators following standardized definitions. Briefly, to qualify as an outcome event, a clinical diagnosis of stroke required a sustained increase in the NIHSS score of ≥3 points that was not explained by other factors, such as infection, or was confirmed by imaging as a new infarct. Covert brain infarction is defined as small ischemic cerebral lesions that are detected on Day 90 MRI in the absence of a symptomatic ischemic stroke event.
All randomized participants will be included in the analysis of the primary endpoint if they have either a symptomatic ischemic stroke event by day 90 or an evaluable MRI at the day 90 visit. Because of the COVID-19 pandemic, all day 90 visit MRIs will be included in the primary analysis, regardless of timing. All other efficacy analyses will be performed on a randomized (intent-to-treat, ITT) population up to day 90.
The population for the primary efficacy endpoint analysis include all randomized participants who have (i) a primary endpoint event (a new ischemic stroke during the study period or a new covert brain infarction detected by MRI on Day 90) or (ii) an evaluable MRI image on Day 90.
The primary efficacy outcome was to assess dose response for the composite of new clinical ischemic stroke during treatment and new covert brain infarction detected by MRI on Day 90 in a modified ITT population (those participants with either a clinical ischemic stroke or a Day 90 MRI).

[2] = test system: patients with acute ischemic stroke or high-risk TIA; assay: AXIOMATIC-SSP NIHSS at the time of first recurrent stroke; settings: for NIHSS Change from Baseline Mean / NIHSS Change from Baseline Median / NIHSS Value Mean / NIHSS Value Median: first recurrent stroke
Source text: (§1) National Institutes of Health Stroke Scale (NIHSS), Modified Rankin Scale (mRS), Montreal Cognitive Assessment (MoCA), and Digit Symbol Substitution Test (subtest of WAIS-IV) were collected at baseline (at randomization for NIHSS), on Days 21 and 90, and at the time of a new stroke event. MoCA and DSST (subset of WAIS-IV) were read by a third-party central laboratory blinded to treatment.
(§2) Descriptive statistics and corresponding change from baseline (where applicable) assessed by the National Institutes of Health Stroke Score (NIHSS), modified Rankin Scale (mRS), Montreal Cognitive Assessment (MoCA), and Digit Symbol Substitution Test (subtest of WAIS-IV) were summarized by treatment group.

[3] = test system: intrinsic coagulation pathway; assay: AXIOMATIC-SSP pharmacodynamics: activated partial thromboplastin time (aPTT) and percent change from baseline; settings: for aPTT Percent Change from Baseline Mean / aPTT Percent Change from Baseline Median / aPTT Value Mean / aPTT Value Median: 50 mg BID
[4] = test system: patients with acute ischemic stroke or high-risk TIA; assay: AXIOMATIC-SSP mRS at the time of first recurrent stroke; settings: for mRS Change from Baseline Mean / mRS Change from Baseline Median / mRS Value Mean / mRS Value Median: first recurrent stroke
Source text: as §1, §2

[5] = test system: patients with acute ischemic stroke or high-risk TIA; assay: AXIOMATIC-SSP composite of new ischemic stroke, MI and all-cause death; settings: up to Day 90
Source text: Event rates of the composite of new ischemic non-fatal stroke, non-fatal myocardial infarction, or all-cause death.

## C[C@@H]1CCC[C@H](n2cnc(-c3cc(Cl)ccc3-n3cc(Cl)nn3)cc2=O)c2cc(ccn2)-c2c(cnn2C(F)F)NC1=O [milvexian, (5R,9S)-9-(4-(5-chloro-2-(4-chloro-1H-1,2,3-triazol-1-yl)phenyl)-6-oxopyrimidin-1(6H)-yl)-21-(difluoromethyl)-5-methyl-21H-3-aza-1(4,2)-pyridina-2(5,4)-pyrazolacyclonaphan-4-one]
[1]; 25 mg once daily
  incidence rate (n/N %) of composite of new clinical ischemic stroke and new covert brain infarction detected by MRI on Day 90: 16.2%
[1]; 25 mg twice daily
  incidence rate (n/N %) of composite of new clinical ischemic stroke and new covert brain infarction detected by MRI on Day 90: 18.5%
[1]; 50 mg twice daily
  incidence rate (n/N %) of composite of new clinical ischemic stroke and new covert brain infarction detected by MRI on Day 90: 14.1%
[1]; 100 mg twice daily
  incidence rate (n/N %) of composite of new clinical ischemic stroke and new covert brain infarction detected by MRI on Day 90: 14.7%
[1]; 200 mg twice daily
  incidence rate (n/N %) of composite of new clinical ischemic stroke and new covert brain infarction detected by MRI on Day 90: 16.4%
[2]; 25 BID, N 11
  NIHSS Change from Baseline Mean: 2.6
  NIHSS Change from Baseline Median: 3.0
  NIHSS Value Mean: 5.4
  NIHSS Value Median: 5.0
[2]; 25 QD, N 14
  NIHSS Change from Baseline Mean: 2.6
  NIHSS Change from Baseline Median: 2.0
  NIHSS Value Mean: 4.6
  NIHSS Value Median: 3.5
[2]; 50 BID, N 11
  NIHSS Change from Baseline Mean: 1.6
  NIHSS Change from Baseline Median: 1.0
  NIHSS Value Mean: 4.6
  NIHSS Value Median: 3.0
[2]; 100 BID, N 10
  NIHSS Change from Baseline Mean: 5.2
  NIHSS Change from Baseline Median: 2.5
  NIHSS Value Mean: 7.1
  NIHSS Value Median: 6.5
[2]; 200 BID, N 20
  NIHSS Change from Baseline Mean: 2.8
  NIHSS Change from Baseline Median: 1.0
  NIHSS Value Mean: 4.4
  NIHSS Value Median: 2.5
[2]; milvexian arms
  NIHSS score at the time of a new stroke event compared with placebo: numerically lower
[3]; DAY 1 24 h, N 269
  aPTT Percent Change from Baseline Mean: 85.17%
  aPTT Percent Change from Baseline Median: 81.89%
  aPTT Value Mean: 49.38 s
  aPTT Value Median: 48.60 s
[3]; DAY 21 anytime, N 268
  aPTT Percent Change from Baseline Mean: 115.62%
  aPTT Percent Change from Baseline Median: 112.6%
  aPTT Value Mean: 57.27 s
  aPTT Value Median: 55.10 s
[3]; DAY 90 anytime, N 241
  aPTT Percent Change from Baseline Mean: 97.32%
  aPTT Percent Change from Baseline Median: 101.18%
  aPTT Value Mean: 52.00 s
  aPTT Value Median: 52.60 s
[3]; milvexian treated groups
  change in aPTT from baseline: Dose-dependent increases
[4]; 25 BID, N 10
  mRS Change from Baseline Mean: 2.1
  mRS Change from Baseline Median: 2.0
  mRS Value Mean: 2.6
  mRS Value Median: 3.0
[4]; 25 QD, N 13
  mRS Change from Baseline Mean: 1.9
  mRS Change from Baseline Median: 2.0
  mRS Value Mean: 2.7
  mRS Value Median: 3.0
[4]; 50 BID, N 11
  mRS Change from Baseline Mean: 1.7
  mRS Change from Baseline Median: 1.0
  mRS Value Mean: 2.3
  mRS Value Median: 2.0
[4]; 100 BID, N 8
  mRS Change from Baseline Mean: 2.4
  mRS Change from Baseline Median: 2.5
  mRS Value Mean: 2.9
  mRS Value Median: 3.0
[4]; 200 BID, N 19
  mRS Change from Baseline Mean: 1.4
  mRS Change from Baseline Median: 1.0
  mRS Value Mean: 1.8
  mRS Value Median: 1.0
[4]; milvexian arms
  mRS score at the time of a new stroke event compared with placebo: numerically lower
[5]; 25 mg BID, N = 318
  All Cause Death (%): (0.9) %
  All Cause Death, subjects n: 3
  Myocardial Infarction (%): (0.6) %
  Myocardial Infarction, subjects n: 2
  New Ischemic Stroke, MI And All Cause Death: Subjects With Event (%): (4.7) %
[5]; 25 mg QD, N = 328
  All Cause Death (%): (0.9) %
  All Cause Death, subjects n: 3
  Myocardial Infarction (%): (0.3) %
  Myocardial Infarction, subjects n: 1
  New Ischemic Stroke, MI And All Cause Death: Subjects With Event (%): (5.2) %
[5]; 50 mg BID, N = 328
  All Cause Death (%): (0.6) %
  All Cause Death, subjects n: 2
  Myocardial Infarction (%): (0.3) %
  Myocardial Infarction, subjects n: 1
  New Ischemic Stroke, MI And All Cause Death: Subjects With Event (%): (4.9) %
[5]; 100 mg BID, N = 310
  All Cause Death (%): (1.6) %
  All Cause Death, subjects n: 5
  Myocardial Infarction (%): (0.6) %
  Myocardial Infarction, subjects n: 2
  New Ischemic Stroke, MI And All Cause Death: Subjects With Event (%): (5.2) %
[5]; 200 mg BID, N = 351
  All Cause Death, subjects n: 4
  Myocardial Infarction, subjects n: 3
